The values below come from patent US20040235849A1, “Tetrahydroquinoxalines acting as bradykinin antagonists” (priority 2001, published 2004).

This assay deals with T1, human B1 receptor (Homo sapiens, UniProt P46663).
T1 construct: expressed in transfected cells
T1 sequence (P46663 1-353): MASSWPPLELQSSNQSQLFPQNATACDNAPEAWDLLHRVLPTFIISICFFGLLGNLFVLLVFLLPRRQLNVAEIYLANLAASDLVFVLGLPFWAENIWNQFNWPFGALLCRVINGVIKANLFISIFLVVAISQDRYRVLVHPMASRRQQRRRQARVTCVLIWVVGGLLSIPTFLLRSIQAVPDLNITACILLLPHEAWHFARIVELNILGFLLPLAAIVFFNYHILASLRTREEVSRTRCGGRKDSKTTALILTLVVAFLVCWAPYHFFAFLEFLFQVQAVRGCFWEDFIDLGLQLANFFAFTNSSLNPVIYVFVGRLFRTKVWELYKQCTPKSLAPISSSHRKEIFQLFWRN
The assay can be described thus: Functional in vitro assay: B1 receptor antagonism measured via agonist-induced intracellular calcium release in recombinant cell lines. In kind it is cell-based. Particulars: stable cell lines, e.g. CHO or HEK 293, recombinantly expressing the human B1 receptor. The text has this:
1. Functional in vitro Assay
Agonists such as des-Arg9-BK and des-Arg10-kallidin activate the B1 receptor and lead, via stimulation of phospholipase C, to release of calcium ions from intracellular stores. Antagonists block the activation of the receptor by the agonists and thus also the agonist-dependent stimulation of phospholipase C and the intracellular calcium release induced thereby.
A functional in vitro assay can be carried out with stable cell lines, e.g. CHO or HEK 293, which recombinantly express the human B1 receptor. This entails measuring the activation of the receptor by the agonist indirectly via the intracellular calcium release induced thereby (in microtiter plates with 96, 384 and 1536 wells/plate). The effect of the tested substances can be stated as IC50.
(Calcium flux is commonly read through the fluorescence of an indicator in the cells.)

For the compound `O=C(CC1C(=O)Nc2ccccc2N1S(=O)(=O)c1ccc(Cl)cc1Cl)NC1CCCCCC1` (centres unmarked) [Example 177], the IC50 (as a rule, the concentration needed to halve the response being measured) was determined as 17 nM.

`O=C(CC1C(=O)Nc2ccccc2N1S(=O)(=O)c1cc(Cl)ccc1Oc1ccc(Cl)cc1)NC1CCCCCC1` (centres unmarked) [Example 170]: the IC50 turned out to be 25 nM.
